Experimental data as given in article PMC4420714 (Peptides, 2015).
Entries after “also recorded” stand apart in the source; their conditions may differ.

What was measured:
VPAC2-R [1] = target: T1, VPAC2-R (Homo sapiens, UniProt P41587); test: Binding of 125I-PACAP27 to VPAC2-R/PANC-1 cells; conditions: ratio of binding IC50, analog vs native parent peptide
T1 sequence (P41587 24-438): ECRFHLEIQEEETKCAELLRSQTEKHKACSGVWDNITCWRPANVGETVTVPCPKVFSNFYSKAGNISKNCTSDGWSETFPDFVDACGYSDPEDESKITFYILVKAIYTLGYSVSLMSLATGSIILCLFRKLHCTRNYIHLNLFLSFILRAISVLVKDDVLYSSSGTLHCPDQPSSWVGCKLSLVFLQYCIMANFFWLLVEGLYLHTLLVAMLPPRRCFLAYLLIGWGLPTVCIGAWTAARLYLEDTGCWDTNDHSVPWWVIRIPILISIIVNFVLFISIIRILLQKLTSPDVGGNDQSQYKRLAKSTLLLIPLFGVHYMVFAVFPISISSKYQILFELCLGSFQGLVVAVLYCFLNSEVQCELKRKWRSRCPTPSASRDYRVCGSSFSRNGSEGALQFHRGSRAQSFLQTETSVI

VPAC2-R [2] = target: T1, VPAC2-R; test: [3H]cAMP generation in VPAC2-R/PANC-1 cells; assay type: cell-based; conditions: VPAC2-R/PANC-1 cells; relative to PACAP38; up to 1 µM

| Substance | decrease in affinity for VPAC2-R/PANC-1 cells compared to native PACAP38 (or PACAP27, VIP) (VPAC2-R [1]) | [3H]cAMP VPAC2-R/PANC-1 % max (agonist class) (VPAC2-R [2]) |
| --- | --- | --- |
| [Aib^16,28,Ala^17,Lys^34,D-Lys^38]PACAP38 [Peptide P34] | 2-to-6 fold | – |
| [Aib^16,Ala^17,Lys^34]PACAP38 [Peptide P30] | 2-to-6 fold | – |
| [Ala^16,17,D-Lys^38]PACAP38 [Peptide P23] | 2-to-6 fold | – |
| [D-Ser^2,Lys(Palmitoyl)^38]PACAP38 [Peptide P13] | 16–21 fold | – |
| [Hyp^3,Aib^16,Ala^17,Lys^34]PACAP38 [Peptide P31] | 50–400 fold | – |
| [Hyp^3,Ala^16,17]PACAP38 [Peptide P20] | 50–400 fold | Ag (1 µM, 35) |
| [Iaa^1,D-Ser^2,Ala^22]PACAP38 [Peptide P48] | 50–400 fold | Ag (1 µM, 43) |
| [Iaa^1,D-Tyr^2,Ala^22]PACAP38 [Peptide P49] | 50–400 fold | – |
| [Iac^1,Ala^16,17,D-Lys^38]PACAP38 [Peptide P29] | 2-to-6 fold | – |
| [Lys(palmitoyl)^38]PACAP38 [Peptide P12] | 16–21 fold | – |
| [Me-Asp^3,Aib^16,28,Lys^34,D-Lys^38]PACAP38 [Peptide P33] | 40–85 fold | – |
| [N-Ac-His^1,Ala^16,17,D-Lys^38]PACAP38 [Peptide P28] | 2-to-6 fold | – |
| [N-Ac-His^1,Pip^3]PACAP38 [Peptide P27] | 15–500 fold | Ag (1 µM, 18) |
| [Pip^3,Aib^16,28,Ala^17,20,Lys^34,D-Lys^38]PACAP38 [Peptide P41] | – | no agonist activity; also recorded: No Act |
| [Pip^3,Aib^16,28,Ala^17,21,Lys^34,D-Lys^38]PACAP38 [Peptide P40] | – | no agonist activity; also recorded: No Act |
| [Pip^3,Aib^16,28,Ala^17,Lys^34,D-Lys^38]PACAP38 [Peptide P35] | 50–400 fold | Ag (1 µM, 33) |
| [Pip^3,Ala^14,17,Aib^16,28,Lys^34,D-Lys^38]PACAP38 [Peptide P39] | – | no agonist activity; also recorded: No Act |
| [Pip^3,Ala^15,17,Aib^16,28,Lys^34,D-Lys^38]PACAP38 [Peptide P38] | – | no agonist activity; also recorded: No Act |
| [Pip^3]PACAP38 [Peptide P26] | 15–500 fold | no agonist activity; also recorded: No Act |
| [Pro^3]PACAP38 [Peptide P18] | 15–500 fold | Ag (1 µM, 26) |
| [Sar^3]PACAP38 [Peptide P19] | 15–500 fold | Ag (1 µM, 35) |
| [β-Ala^3,Ala^16,17]PACAP38 [Peptide P21] | 50–400 fold | no agonist activity; also recorded: No Act |
